In US20220324913A1, “ANTIGENIC NEURON SPECIFIC ENOLASE PEPTIDES FOR DIAGNOSING AND TREATING AUTISM” (THE REGENTS OF THE UNIVERSITY OF CALIFORNIA, priority 2019, published 2022):
Entries after “also recorded” stand apart in the source; their conditions may differ.

System: maternal autoantibodies (plasma from mothers of ASD and TD children)
Assay: NSE 15-mer peptide microarray epitope mapping probed with maternal plasma
Format: binding, human
Conditions: for Specific binding: group whose antibodies recognize the sequence; for ASD + N = 19 (number of positive samples) / ASD + N = 8 (number of positive samples): mothers of ASD children; for ASD + N = 19 (number of positive samples) / TD + N = 10 (number of positive samples) / ASD + N = 8 (number of positive samples) / TD + N = 11 (number of positive samples): positive if FI >200; for TD + N = 10 (number of positive samples) / TD + N = 11 (number of positive samples): mothers of TD children

Substance | Specific binding (ELISA positive samples) | ASD + N = 19 (number of positive samples) (ELISA positive samples) | TD + N = 10 (number of positive samples) (ELISA positive samples) | Specific binding (ELISA negative samples) | ASD + N = 8 (number of positive samples) (ELISA negative samples) | TD + N = 11 (number of positive samples) (ELISA negative samples) | Specific binding (ELISA positive samples, listed as SEQ ID NO:7) | Specific binding (ELISA positive samples, listed as SEQ ID NO:9)
218 (GGFAPNILENSEALE; listed as Homo sapiens) [compound 218] | ASD | 3 | 0 | – | – | – | – | –
252 (DVAASEFYRDGKYDL; listed as Homo sapiens) [compound 252] | ASD | 3 | 0 | – | – | – | – | –
279 (TGDQLGALYQDFVRD; listed as Homo sapiens) [compound 279] | ASD | 5 | 0 | – | – | – | – | –
280 (GDQLGALYQDFVRDY; listed as Homo sapiens) [compound 280] | ASD | 3 | 0 | – | – | – | – | –
281 (DQLGALYQDFVRDYP; listed as Homo sapiens) [compound 281] | ASD | 3 | 0 | – | – | – | – | –
288 (QDFVRDYPVVSIEDP; listed as Homo sapiens) [compound 288] | – | – | – | ASD | 3 | 0 | – | –
289 (DFVRDYPVVSIEDPF; listed as Homo sapiens) [compound 289] | ASD | 3 | 0 | – | – | – | – | –
290 (FVRDYPVVSIEDPFD; listed as Homo sapiens) [compound 290] | – | – | – | ASD and TD | 3 | 1 | – | –
291 (VRDYPVVSIEDPFDQ; listed as Homo sapiens) [compound 291] | – | – | – | ASD and TD | 4 | 4 | – | –
292 (RDYPVVSIEDPFDQD; listed as Homo sapiens) [compound 292] | – | – | – | ASD and TD | 5 | 2 | – | –
293 (DYPVVSIEDPFDQDD; listed as Homo sapiens) [compound 293] | – | 6 | 4 | ASD and TD | 6 | 7 | – | –
294 (YPVVSIEDPFDQDDW; listed as Homo sapiens) [compound 294] | – | 8 | 4 | ASD and TD | 5 | 7 | – | –
295 (PVVSIEDPFDQDDWA; listed as Homo sapiens) [compound 295] | – | 5 | 2 | ASD and TD | 4 | 3 | – | –
296 (VVSIEDPFDQDDWAA; listed as Homo sapiens) [compound 296] | – | 4 | 1 | ASD and TD | 4 | 2 | – | –
297 (VSIEDPFDQDDWAAW; listed as Homo sapiens) [compound 297] | – | 4 | 1 | ASD and TD | 2 | 2 | – | –
298 (SIEDPFDQDDWAAWS; listed as Homo sapiens) [compound 298] | ASD | 4 | 0 | – | – | – | – | –
299 (IEDPFDQDDWAAWSK; listed as Homo sapiens) [compound 299] | ASD | 2 | 0 | – | – | – | – | –
407 (RSERLAKYNQLMRIE; listed as Homo sapiens) [compound 407] | ASD | 3 | 0 | – | – | – | – | –
408 (SERLAKYNQLMRIEE; listed as Homo sapiens) [compound 408] | ASD | 6 | 0 | – | – | – | – | –
409 (ERLAKYNQLMRIEEE; listed as Homo sapiens) [compound 409] | ASD | 7 | 0 | – | – | – | – | –
410 (RLAKYNQLMRIEEEL; listed as Homo sapiens) [compound 410] | ASD | 5 | 0 | – | – | – | – | –
411 (LAKYNQLMRIEEELG; listed as Homo sapiens) [compound 411] | ASD | 3 | 0 | – | – | – | – | –
412 (AKYNQLMRIEEELGD; listed as Homo sapiens) [compound 412] | ASD | 3 | 0 | – | – | – | – | –
413 (KYNQLMRIEEELGDE; listed as Homo sapiens) [compound 413] | ASD | 3 | 0 | – | – | – | – | –
416 (QLMRIEEELGDEARF; listed as Homo sapiens) [compound 416] | ASD | 3 | 0 | – | – | – | – | –
DYPVVSIEDPFDQDD (listed as Homo sapiens) [ES 293] | – | – | – | – | – | – | recognized by plasma from both sample groups; also recorded: recognized by antibodies in both experimental groups | –
PVVSIEDPFDQDDWA (listed as Homo sapiens) [ES 295] | – | – | – | – | – | – | – | recognized by plasma from both sample groups; also recorded: recognized by antibodies in both experimental groups
QDFVRDYPVVSIEDP (listed as Homo sapiens) [ES 288] | – | – | – | ASD-specific | – | – | – | –
